According to US20230398130A1, “METHODS AND COMPOSITIONS FOR DIFFERENTIATING STEM CELLS” (Massachusetts Institute of Technology, priority 2020, published 2023):

Tests used:
ISC-enriched organoids [1] = experiment: Primary screen, 384-well 2.5-D organoid differentiation (ENR+CD, 6 days): basal lysozyme secretion (LYZ.NS); type: cell-based, murine; conditions: primary screen; for Dose.FC.LYZ.NS: FC vs plate median; for Z.LYZ.NS: standard z score; for SSMD.LYZ.NS: strictly standardized mean difference
Excerpt: (§1) High-throughput screening.

ISC-enriched organoids [2] = experiment: Primary screen, 384-well 2.5-D organoid differentiation (ENR+CD, 6 days, Target Selective Inhibitor Library, vs whole-plate median): ATP (CellTiter-Glo 3D, CTG); conditions: primary screen; for Dose.FC.CTG: FC vs plate median; for Z.CTG: standard z score; for SSMD.CTG: strictly standardized mean difference
ISC-enriched organoids [3] = experiment: Primary screen, 384-well 2.5-D organoid differentiation (ENR+CD, 6 days): carbachol-induced lysozyme secretion (LYZ.S); type: cell-based, murine; conditions: primary screen; for Dose.FC.LYZ.S: FC vs plate median; for Z.LYZ.S: standard z score; for SSMD.LYZ.S: strictly standardized mean difference
Excerpt: as §1

[4] = 1st of the 4 dose lines of the treatment (dose not given)
[5] = 2nd of the 4 dose lines of the treatment (dose not given)
[6] = 3rd of the 4 dose lines of the treatment (dose not given)
[7] = 4th of the 4 dose lines of the treatment (dose not given)

**Q.** How did the Dose.FC.LYZ.NS (ISC-enriched organoids [1]; Dose 0.08 uM) turn out when Cc1noc(-c2ccc(CSCCC(=O)O)cc2)c1NC(=O)OC(C)c1ccccc1Cl (stereo not drawn) [Ki16425] was run?
**A.** 0.001 log 2 fold change

**Q.** What about the Z.LYZ.NS (ISC-enriched organoids [1]; Dose 0.08 uM) of the same compound?
**A.** 0.005

**Q.** And the Dose.FC.LYZ.NS (ISC-enriched organoids [1]; Dose 0.40 uM)?
**A.** 0.117 log 2 fold change

**Q.** And the Z.LYZ.NS (ISC-enriched organoids [1]; Dose 0.40 uM)?
**A.** 1.017

**Q.** And the Dose.FC.LYZ.NS (ISC-enriched organoids [1]; Dose 2.00 uM)?
**A.** −0.008 log 2 fold change

**Q.** And the Z.LYZ.NS (ISC-enriched organoids [1]; Dose 2.00 uM)?
**A.** −0.069

**Q.** And the Dose.FC.LYZ.NS (ISC-enriched organoids [1]; Dose 10.00 uM)?
**A.** −0.038 log 2 fold change

**Q.** What about the Z.LYZ.NS (ISC-enriched organoids [1]; Dose 10.00 uM) of the same compound?
**A.** −0.327

**Q.** What about the SSMD.LYZ.NS (ISC-enriched organoids [1]; [4]) of the same compound?
**A.** 0.006

**Q.** And the SSMD.LYZ.NS (ISC-enriched organoids [1]; [5])?
**A.** 0.483

**Q.** And the SSMD.LYZ.NS (ISC-enriched organoids [1]; [6])?
**A.** −0.072

**Q.** What about the SSMD.LYZ.NS (ISC-enriched organoids [1]; [7]) of the same compound?
**A.** −0.246

**Q.** And the Dose.FC.CTG (ISC-enriched organoids [2]; Dose 0.08 uM)?
**A.** −0.051 log 2 fold change

**Q.** What about the Z.CTG (ISC-enriched organoids [2]; Dose 0.08 uM) of the same compound?
**A.** −0.121

**Q.** What about the Dose.FC.CTG (ISC-enriched organoids [2]; Dose 0.40 uM) of the same compound?
**A.** −0.002 log 2 fold change

**Q.** What about the Z.CTG (ISC-enriched organoids [2]; Dose 0.40 uM) of the same compound?
**A.** −0.005

**Q.** And the Dose.FC.CTG (ISC-enriched organoids [2]; Dose 2.00 uM)?
**A.** −0.078 log 2 fold change

**Q.** And the Z.CTG (ISC-enriched organoids [2]; Dose 2.00 uM)?
**A.** −0.185

**Q.** And the Dose.FC.CTG (ISC-enriched organoids [2]; Dose 10.00 uM)?
**A.** −0.165 log 2 fold change

**Q.** What about the Z.CTG (ISC-enriched organoids [2]; Dose 10.00 uM) of the same compound?
**A.** −0.394

**Q.** And the SSMD.CTG (ISC-enriched organoids [2]; [4])?
**A.** −0.145

**Q.** And the SSMD.CTG (ISC-enriched organoids [2]; [5])?
**A.** −0.008

**Q.** What about the SSMD.CTG (ISC-enriched organoids [2]; [6]) of the same compound?
**A.** −0.226

**Q.** And the SSMD.CTG (ISC-enriched organoids [2]; [7])?
**A.** −0.527

**Q.** And the Dose.FC.LYZ.S (ISC-enriched organoids [3]; Dose 0.08 uM)?
**A.** 0.022 log 2 fold change

**Q.** And the Dose.FC.LYZ.S (ISC-enriched organoids [3]; Dose 0.40 uM)?
**A.** 0.114 log 2 fold change

**Q.** What about the Dose.FC.LYZ.S (ISC-enriched organoids [3]; Dose 2.00 uM) of the same compound?
**A.** −0.021 log 2 fold change

**Q.** What about the Dose.FC.LYZ.S (ISC-enriched organoids [3]; Dose 10.00 uM) of the same compound?
**A.** −0.071 log 2 fold change

**Q.** And the Z.LYZ.S (ISC-enriched organoids [3]; [4])?
**A.** 0.142

**Q.** And the Z.LYZ.S (ISC-enriched organoids [3]; [5])?
**A.** 0.739

**Q.** What about the Z.LYZ.S (ISC-enriched organoids [3]; [6]) of the same compound?
**A.** −0.135

**Q.** And the Z.LYZ.S (ISC-enriched organoids [3]; [7])?
**A.** −0.459

**Q.** And the SSMD.LYZ.S (ISC-enriched organoids [3]; [4])?
**A.** 0.130

**Q.** What about the SSMD.LYZ.S (ISC-enriched organoids [3]; [5]) of the same compound?
**A.** 0.421

**Q.** What about the SSMD.LYZ.S (ISC-enriched organoids [3]; [6]) of the same compound?
**A.** −0.133

**Q.** What about the SSMD.LYZ.S (ISC-enriched organoids [3]; [7]) of the same compound?
**A.** −0.394

**Q.** O=C(c1cn(Cc2cncn2Cc2ccc(Br)cc2)cc1-c1cccc2ccccc12)N1CCOCC1 [LB42708] was tested. Which Dose.FC.LYZ.NS (ISC-enriched organoids [1]; Dose 0.08 uM) did it give?
**A.** −0.116 log 2 fold change

**Q.** And the Z.LYZ.NS (ISC-enriched organoids [1]; Dose 0.08 uM)?
**A.** −1.010

**Q.** What about the Dose.FC.LYZ.NS (ISC-enriched organoids [1]; Dose 0.40 uM) of the same compound?
**A.** −0.140 log 2 fold change

**Q.** What about the Z.LYZ.NS (ISC-enriched organoids [1]; Dose 0.40 uM) of the same compound?
**A.** −1.221

**Q.** And the Dose.FC.LYZ.NS (ISC-enriched organoids [1]; Dose 2.00 uM)?
**A.** −0.176 log 2 fold change

**Q.** And the Z.LYZ.NS (ISC-enriched organoids [1]; Dose 2.00 uM)?
**A.** −1.531

**Q.** And the Dose.FC.LYZ.NS (ISC-enriched organoids [1]; Dose 10.00 uM)?
**A.** −0.182 log 2 fold change

**Q.** And the Z.LYZ.NS (ISC-enriched organoids [1]; Dose 10.00 uM)?
**A.** −1.587

**Q.** And the SSMD.LYZ.NS (ISC-enriched organoids [1]; [4])?
**A.** −1.118

**Q.** What about the SSMD.LYZ.NS (ISC-enriched organoids [1]; [5]) of the same compound?
**A.** −1.157

**Q.** And the SSMD.LYZ.NS (ISC-enriched organoids [1]; [6])?
**A.** −1.034

**Q.** What about the SSMD.LYZ.NS (ISC-enriched organoids [1]; [7]) of the same compound?
**A.** −0.939

**Q.** What about the Dose.FC.CTG (ISC-enriched organoids [2]; Dose 0.08 uM) of the same compound?
**A.** −0.072 log 2 fold change

**Q.** And the Z.CTG (ISC-enriched organoids [2]; Dose 0.08 uM)?
**A.** −0.172

**Q.** What about the Dose.FC.CTG (ISC-enriched organoids [2]; Dose 0.40 uM) of the same compound?
**A.** −0.342 log 2 fold change

**Q.** And the Z.CTG (ISC-enriched organoids [2]; Dose 0.40 uM)?
**A.** −0.817

**Q.** What about the Dose.FC.CTG (ISC-enriched organoids [2]; Dose 2.00 uM) of the same compound?
**A.** −0.116 log 2 fold change

**Q.** What about the Z.CTG (ISC-enriched organoids [2]; Dose 2.00 uM) of the same compound?
**A.** −0.277

**Q.** What about the Dose.FC.CTG (ISC-enriched organoids [2]; Dose 10.00 uM) of the same compound?
**A.** −0.706 log 2 fold change

**Q.** What about the Z.CTG (ISC-enriched organoids [2]; Dose 10.00 uM) of the same compound?
**A.** −1.685

**Q.** What about the SSMD.CTG (ISC-enriched organoids [2]; [4]) of the same compound?
**A.** −0.254

**Q.** And the SSMD.CTG (ISC-enriched organoids [2]; [5])?
**A.** −0.531

**Q.** And the SSMD.CTG (ISC-enriched organoids [2]; [6])?
**A.** −0.186

**Q.** And the SSMD.CTG (ISC-enriched organoids [2]; [7])?
**A.** −1.059

**Q.** And the Dose.FC.LYZ.S (ISC-enriched organoids [3]; Dose 0.08 uM)?
**A.** −0.089 log 2 fold change

**Q.** And the Dose.FC.LYZ.S (ISC-enriched organoids [3]; Dose 0.40 uM)?
**A.** −0.144 log 2 fold change

**Q.** What about the Dose.FC.LYZ.S (ISC-enriched organoids [3]; Dose 2.00 uM) of the same compound?
**A.** −0.238 log 2 fold change

**Q.** What about the Dose.FC.LYZ.S (ISC-enriched organoids [3]; Dose 10.00 uM) of the same compound?
**A.** −0.233 log 2 fold change

**Q.** What about the Z.LYZ.S (ISC-enriched organoids [3]; [4]) of the same compound?
**A.** −0.576

**Q.** And the Z.LYZ.S (ISC-enriched organoids [3]; [5])?
**A.** −0.934

**Q.** What about the Z.LYZ.S (ISC-enriched organoids [3]; [6]) of the same compound?
**A.** −1.539

**Q.** And the Z.LYZ.S (ISC-enriched organoids [3]; [7])?
**A.** −1.509

**Q.** And the SSMD.LYZ.S (ISC-enriched organoids [3]; [4])?
**A.** −0.519

**Q.** And the SSMD.LYZ.S (ISC-enriched organoids [3]; [5])?
**A.** −0.630

**Q.** What about the SSMD.LYZ.S (ISC-enriched organoids [3]; [6]) of the same compound?
**A.** −0.965

**Q.** And the SSMD.LYZ.S (ISC-enriched organoids [3]; [7])?
**A.** −0.864
